# Laboratory results published in US8497240B2 (priority 2006, dated 2013).
# Several values for one entry are separate records, joined by “and”; a condition that tells them apart may be missing. Equal entries are not always repeated.
# Type: in vivo, NIH/Swiss mice
# Settings: 30 nmol/kg
# Experimental: In FIG. 3A, bars represent mean±sd, n=6-10. […] Gavage (1.5 g/kg) was given at t=0, Sample was taken at t=30 min. […] In FIG. 3B, points represent mean±sem, n=8-15.
# Peptide was injected IP at t=−5 minutes into 4-hour fasted NIH/Swiss female mice. […] In FIG. 17 points represent mean+/−sem. […] Samples were taken at t=60, t=120 and t=180.
row,Structure (SMILES),OGTT/GL (%)
1,CC[C@H](C)[C@H](NC(=O)[C@H](CO)NC(=O)[C@H](Cc1ccc(O)cc1)NC(=O)[C@H](CC(=O)O)NC(=O)[C@H](CO)NC(=O)[C@@H](NC(=O)[C@H](Cc1ccccc1)NC(=O)[C@@H](NC(=O)CNC(=O)[C@H](CC(=O)O)NC(=O)[C@H](C)NC(=O)[C@@H](N)Cc1ccc(O)cc1)[C@@H](C)O)[C@@H](C)CC)C(=O)N[C@@H](C)C(=O)N[C@@H](CCSC)C(=O)N[C@@H](CC(=O)O)C(=O)N[C@@H](CCCCN)C(=O)N[C@H](C(=O)N[C@@H](Cc1c[nH]cn1)C(=O)N[C@@H](CCC(N)=O)C(=O)N[C@@H](CCC(N)=O)C(=O)N[C@@H](CC(=O)O)C(=O)N[C@@H](Cc1ccccc1)C(=O)N[C@H](C(=O)N[C@@H](CC(N)=O)C(=O)N[C@@H](Cc1c[nH]c2ccccc12)C(=O)N[C@@H](CC(C)C)C(=O)N[C@@H](CC(C)C)C(=O)N[C@@H](C)C(=O)N[C@@H](CCC(N)=O)C(=O)N[C@@H](CCCCN)C(=O)N1CCC[C@H]1C(=O)N[C@@H](CCCCN)C(=O)N[C@@H](CCCCN)C(=O)N[C@H](C(=O)N[C@@H](CCCNC(=N)N)C(=O)N[C@@H](Cc1ccc(O)cc1)C(=O)N[C@@H](CO)C(N)=O)[C@@H](C)CC)C(C)C)[C@@H](C)CC [Compound 0601GIP4390],"1, 30%"
2,CC[C@H](C)[C@H](NC(=O)[C@H](CO)NC(=O)[C@H](Cc1ccc(O)cc1)NC(=O)[C@H](CC(=O)O)NC(=O)[C@H](CO)NC(=O)[C@@H](NC(=O)[C@H](Cc1ccccc1)NC(=O)[C@@H](NC(=O)CNC(=O)[C@H](CCC(=O)O)NC(=O)[C@@H](CCC(=O)O)NC(=O)[C@@H](N)Cc1ccc(O)cc1)[C@@H](C)O)[C@@H](C)CC)C(=O)N[C@@H](C)C(=O)N[C@@H](CCSC)C(=O)N[C@@H](CC(=O)O)C(=O)N[C@@H](CCCCN)C(=O)N[C@H](C(=O)N[C@@H](Cc1c[nH]cn1)C(=O)N[C@@H](CCC(N)=O)C(=O)N[C@@H](CCC(N)=O)C(=O)N[C@@H](CC(=O)O)C(=O)N[C@@H](Cc1ccccc1)C(=O)N[C@H](C(=O)N[C@@H](CC(N)=O)C(=O)N[C@@H](Cc1c[nH]c2ccccc12)C(=O)N[C@@H](CC(C)C)C(=O)N[C@@H](CC(C)C)C(=O)N[C@@H](C)C(=O)N[C@@H](CCC(N)=O)C(=O)N[C@@H](CCCCN)C(=O)N1CCC[C@H]1C(=O)N[C@@H](CO)C(=O)N[C@@H](CO)C(=O)NCC(=O)N[C@@H](C)C(=O)N1CCC[C@H]1C(=O)N1CCC[C@H]1C(=O)N1CCC[C@H]1C(=O)N[C@@H](CO)C(N)=O)C(C)C)[C@@H](C)CC [0601GIP4703],"−18, 30%"
3,CC[C@H](C)[C@H](NC(=O)[C@H](CO)NC(=O)[C@H](Cc1ccc(O)cc1)NC(=O)[C@H](CC(=O)O)NC(=O)[C@H](CO)NC(=O)[C@@H](NC(=O)[C@H](Cc1ccccc1)NC(=O)[C@@H](NC(=O)CNC(=O)[C@H](CCC(=O)O)NC(=O)[C@H](C)NC(=O)[C@H](Cc1ccc(O)cc1)NC(=O)[C@@H](N)CC(C)C)[C@@H](C)O)[C@@H](C)CC)C(=O)N[C@@H](C)C(=O)N[C@@H](CCSC)C(=O)N[C@@H](CC(=O)O)C(=O)N[C@@H](CCCCN)C(=O)N[C@H](C(=O)N[C@@H](Cc1c[nH]cn1)C(=O)N[C@@H](CCC(N)=O)C(=O)N[C@@H](CCC(N)=O)C(=O)N[C@@H](CC(=O)O)C(=O)N[C@@H](Cc1ccccc1)C(=O)N[C@H](C(=O)N[C@@H](CC(N)=O)C(=O)N[C@@H](Cc1c[nH]c2ccccc12)C(=O)N[C@@H](CC(C)C)C(=O)N[C@@H](CC(C)C)C(=O)N[C@@H](C)C(=O)N[C@@H](CCC(N)=O)C(=O)N[C@@H](CCCCN)C(=O)N1CCC[C@H]1C(=O)N[C@@H](CCCCN)C(=O)N[C@@H](CCCCN)C(=O)N[C@H](C(=O)N[C@@H](CCCNC(=N)N)C(=O)N[C@@H](Cc1ccc(O)cc1)C(=O)N[C@@H](CO)C(N)=O)[C@@H](C)CC)C(C)C)[C@@H](C)CC [0601GIP4799],"−10, % and −10, 30%"
4,CC[C@H](C)[C@H](NC(=O)[C@H](CO)NC(=O)[C@H](Cc1ccc(O)cc1)NC(=O)[C@H](CC(=O)O)NC(=O)[C@H](CO)NC(=O)[C@@H](NC(=O)[C@H](Cc1ccccc1)NC(=O)[C@@H](NC(=O)CNC(=O)[C@H](CCC(=O)O)NC(=O)[C@@H](C)NC(=O)[C@H](Cc1ccc(O)cc1)NC(=O)OCC(C)C)[C@@H](C)O)[C@@H](C)CC)C(=O)N[C@@H](C)C(=O)N[C@@H](CCSC)C(=O)N[C@@H](CC(=O)O)C(=O)N[C@@H](CCCCN)C(=O)N[C@H](C(=O)N[C@@H](Cc1c[nH]cn1)C(=O)N[C@@H](CCC(N)=O)C(=O)N[C@@H](CCC(N)=O)C(=O)N[C@@H](CC(=O)O)C(=O)N[C@@H](Cc1ccccc1)C(=O)N[C@H](C(=O)N[C@@H](CC(N)=O)C(=O)N[C@@H](Cc1c[nH]c2ccccc12)C(=O)N[C@@H](CC(C)C)C(=O)N[C@@H](CC(C)C)C(=O)N[C@@H](C)C(=O)N[C@@H](CCC(N)=O)C(=O)N[C@@H](CCCCN)C(=O)N1CCC[C@H]1C(=O)N[C@@H](CO)C(=O)N[C@@H](CO)C(=O)NCC(=O)N[C@@H](C)C(=O)N1CCC[C@H]1C(=O)N1CCC[C@H]1C(=O)N1CCC[C@H]1C(=O)N[C@@H](CO)C(N)=O)C(C)C)[C@@H](C)CC [Compound 0601GIP4180],"−11, 30%"
5,CC[C@H](C)[C@H](NC(=O)[C@H](CO)NC(=O)[C@H](Cc1ccc(O)cc1)NC(=O)[C@H](CC(=O)O)NC(=O)[C@H](CO)NC(=O)[C@@H](NC(=O)[C@H](Cc1ccccc1)NC(=O)[C@@H](NC(=O)CNC(=O)[C@H](CCC(=O)O)NC(=O)[C@H](C)NC(=O)[C@@H](N)Cc1ccc(O)cc1)[C@@H](C)O)[C@@H](C)CC)C(=O)N[C@@H](C)C(=O)N[C@@H](CCSC)C(=O)N[C@@H](CC(=O)O)C(=O)N[C@@H](CCCCN)C(=O)N[C@H](C(=O)N[C@@H](Cc1c[nH]cn1)C(=O)N[C@@H](CCC(N)=O)C(=O)N[C@@H](CCC(N)=O)C(=O)N[C@@H](CC(=O)O)C(=O)N[C@@H](Cc1ccccc1)C(=O)N[C@H](C(=O)N[C@@H](CC(N)=O)C(=O)N[C@@H](Cc1c[nH]c2ccccc12)C(=O)N[C@@H](CC(C)C)C(=O)N[C@@H](CC(C)C)C(=O)N[C@@H](C)C(=O)N[C@@H](CCC(N)=O)C(=O)N[C@@H](CCCCN)C(=O)N[C@H](C(=O)N[C@@H](CO)C(=O)N1CCC[C@H]1C(=O)N[C@@H](CCCNC(=N)N)C(=O)N1CCC[C@H]1C(=O)N1CCC[C@H]1C(=O)N[C@@H](CO)C(N)=O)[C@@H](C)O)C(C)C)[C@@H](C)CC [0601GIP4328],"−2, 30%"
6,CC[C@H](C)[C@H](NC(=O)[C@H](CO)NC(=O)[C@H](Cc1ccc(O)cc1)NC(=O)[C@H](CC(=O)O)NC(=O)[C@H](CO)NC(=O)[C@@H](NC(=O)[C@H](Cc1ccccc1)NC(=O)[C@@H](NC(=O)CNC(=O)[C@H](CCC(=O)O)NC(=O)[C@H](C)NC(=O)[C@@H](N)Cc1ccc(O)cc1)[C@@H](C)O)[C@@H](C)CC)C(=O)N[C@@H](C)C(=O)N[C@@H](CCSC)C(=O)N[C@@H](CC(=O)O)C(=O)N[C@@H](CCCCN)C(=O)N[C@H](C(=O)N[C@@H](Cc1c[nH]cn1)C(=O)N[C@@H](CCC(N)=O)C(=O)N[C@@H](CCC(N)=O)C(=O)N[C@@H](CC(=O)O)C(=O)N[C@@H](Cc1ccccc1)C(=O)N[C@H](C(=O)N[C@@H](CC(N)=O)C(=O)N[C@@H](Cc1c[nH]c2ccccc12)C(=O)N[C@@H](CC(C)C)C(=O)N[C@@H](CC(C)C)C(=O)N[C@@H](C)C(=O)N[C@@H](CCC(N)=O)C(=O)N[C@@H](CCCCN)C(=O)N[C@H](C(=O)N[C@@H](CO)C(=O)N1CCC[C@H]1C(=O)N[C@@H](CCCNC(=N)N)C(=O)N1CCC[C@H]1C(=O)N1CCC[C@H]1C(=O)N[C@@H](CO)C(=O)N[C@@H](CO)C(N)=O)[C@@H](C)O)C(C)C)[C@@H](C)CC [0601GIP4401],"1, 30%"
7,CC[C@H](C)[C@H](NC(=O)[C@H](CO)NC(=O)[C@H](Cc1ccc(O)cc1)NC(=O)[C@H](CC(=O)O)NC(=O)[C@H](CO)NC(=O)[C@@H](NC(=O)[C@H](Cc1ccccc1)NC(=O)[C@@H](NC(=O)CNC(=O)[C@H](CCC(=O)O)NC(=O)CCNC(=O)[C@@H](N)Cc1ccc(O)cc1)[C@@H](C)O)[C@@H](C)CC)C(=O)N[C@@H](C)C(=O)N[C@@H](CCSC)C(=O)N[C@@H](CC(=O)O)C(=O)N[C@@H](CCCCN)C(=O)N[C@H](C(=O)N[C@@H](Cc1c[nH]cn1)C(=O)N[C@@H](CCC(N)=O)C(=O)N[C@@H](CCC(N)=O)C(=O)N[C@@H](CC(=O)O)C(=O)N[C@@H](Cc1ccccc1)C(=O)N[C@H](C(=O)N[C@@H](CC(N)=O)C(=O)N[C@@H](Cc1c[nH]c2ccccc12)C(=O)N[C@@H](CC(C)C)C(=O)N[C@@H](CC(C)C)C(=O)N[C@@H](C)C(=O)N[C@@H](CCC(N)=O)C(=O)N[C@@H](CCCCN)C(=O)N1CCC[C@H]1C(=O)N[C@@H](CO)C(=O)N[C@@H](CO)C(=O)NCC(=O)N[C@@H](C)C(=O)N1CCC[C@H]1C(=O)N1CCC[C@H]1C(=O)N1CCC[C@H]1C(=O)N[C@@H](CO)C(N)=O)C(C)C)[C@@H](C)CC [0601GIP4458],"−14, 30%"

# Same assay, conditions: 350 nmol/kg
row,Structure (SMILES),OGTT/GL (%)
1,CC[C@H](C)[C@H](NC(=O)[C@H](CO)NC(=O)[C@H](Cc1ccc(O)cc1)NC(=O)[C@H](CC(=O)O)NC(=O)[C@H](CO)NC(=O)[C@@H](NC(=O)[C@H](Cc1ccccc1)NC(=O)[C@@H](NC(=O)CNC(=O)[C@H](CCC(=O)O)NC(=O)[C@@H](C)NC(=O)[C@@H](N)Cc1ccc(O)cc1)[C@@H](C)O)[C@@H](C)CC)C(=O)N[C@@H](C)C(=O)N[C@@H](CCSC)C(=O)N[C@@H](CC(=O)O)C(=O)N[C@@H](CCCCN)C(=O)N[C@H](C(=O)N[C@@H](Cc1c[nH]cn1)C(=O)N[C@@H](CCC(N)=O)C(=O)N[C@@H](CCC(N)=O)C(=O)N[C@@H](CC(=O)O)C(=O)N[C@@H](Cc1ccccc1)C(=O)N[C@H](C(=O)N[C@@H](CC(N)=O)C(=O)N[C@@H](Cc1c[nH]c2ccccc12)C(=O)N[C@@H](CC(C)C)C(=O)N[C@@H](CC(C)C)C(=O)N[C@@H](C)C(=O)N[C@@H](CCC(N)=O)C(=O)N[C@@H](CCCCN)C(=O)N[C@H](C(=O)N[C@@H](CO)C(=O)N1CCC[C@H]1C(=O)N[C@@H](CCCNC(=N)N)C(=O)N1CCC[C@H]1C(=O)N1CCC[C@H]1C(=O)N[C@@H](CO)C(N)=O)[C@@H](C)O)C(C)C)[C@@H](C)CC [Compound 0601GIP4236],−16
